The results in this text go back to PubChem BioAssay AID493013 (Southern Research Specialized Biocontainment Screening …, 2011).

SMILES strings stand for the structures. The source made the active and inactive calls. The rule behind the calls is not given here.

Experiment [1] deals with mammalian cell line viability, cytotoxicity counter-screen. In words: mammalian cell cytotoxicity, dose response, cytotoxicity control, secondary assay, set 2 (AID 493013).
Assay in experiment [2]: as above
To be noted: mammalian cell line viability, cytotoxicity counter-screen; at 100 µM (top of the series).

As to `O=C(Nc1nc2ccccc2[nH]1)c1cc2cc(Br)ccc2o1`, in experiment [1], the 50% cytotoxic concentration (CC50) is 11.5 µM.
For `CC(=O)Nc1ccc2nc(NC(=O)COc3ccccc3)sc2c1`, the CC50 in experiment [1] is 49.8 µM.
Take `Cc1ccc(OCC(=O)Nc2nc3ccc(F)cc3s2)cc1`: the viability in experiment [2] was 84.2% (inactive).
Still for that read-out and setting: the figure for `Cc1ccc(OCC(=O)Nc2nc3c(Cl)cccc3s2)cc1` is 97% (inactive); for `Cc1cccc(C)c1OCC(=O)Nc1nc2ccccc2s1` it is 84.5% (inactive).
Take `O=C(COc1ccc2c3c(c(=O)oc2c1)CCC3)Nc1nc2ccccc2[nH]1`: in experiment [1], the CC50 was 23.4 µM.
As for `Cc1ccccc1OCC(=O)Nc1noc(-c2ccccc2)n1`, the viability in experiment [2] is 96.4% (inactive).
Regarding `Cc1ccc(OCC(=O)Nc2ccc(Cl)cc2)c(C)c1`, the viability in experiment [2] is 93.6% (inactive).
With `c1ccc(OCc2nnc(-c3ccccc3)o2)cc1`, in experiment [2], the viability was 72.5% (inactive).
As for `CC(=O)c1c(C)n(-c2cccc(Cl)c2)c2ccc(O)cc12`, the viability in experiment [2] is 78.9% (inactive).
Same read-out and setting: next, `O=C(COc1ccc2ccccc2c1)Nc1nc2ccccc2[nH]1`: 91.9% (inactive).
As to `CCCN1CC(O)=C(c2nc3ccccc3s2)C1=N`, the CC50 in experiment [1] was 90.5 µM.
On to `O=C(Cc1ccccc1Cl)Nc1nc2ccccc2[nH]1`, for which the viability in experiment [2] is 84.9% (inactive).
Turning to `CN(NC(=O)c1c(Cl)cccc1Cl)c1cccc(Cl)n1`, in experiment [2], the viability is 79.9% (inactive).
In the case of `N/C(=N\c1nc2ccccc2o1)NC(=O)c1ccccc1F`, the viability in experiment [2] is 96.4% (inactive).
As for `Cc1cc2ccccc2[nH]1`, the viability in experiment [2] was 100% (inactive).
On to `N/C(=N\c1nc2ccccc2o1)NC(=O)c1ccccc1`, for which the CC50 in experiment [1] was 7.4 µM.
`CCOc1ccc(NC(=O)COc2ccc(C)cc2C)cc1`: in experiment [2], the viability is 78.7% (inactive).
For the compound `Cc1ccc2sc(NC(=O)COc3ccccc3)nc2c1C`, the CC50 in experiment [1] was 20.2 µM.
With `COC(=O)c1c(C)n(-c2ccccc2)c2ccc(O)cc12`, in experiment [1], the CC50 is 61.3 µM.
Regarding `Cc1cccnc1NC(=S)NC(=O)c1cncc(Br)c1`, in experiment [2], the viability was 106% (inactive).
Take `O=C(COC(=O)C1=COCCO1)Nc1ccc2c(c1)OCO2`: the viability in experiment [2] was 89% (inactive).
As for `N/C(=N\c1nc2cc(Cl)ccc2o1)NC(=O)c1ccccc1`, the CC50 in experiment [1] is 14.5 µM.
On to `COc1ccc2c(c1)c(C(C)=O)c(C)n2-c1ccccc1`, for which the viability in experiment [2] was 92.5% (inactive).
Take `O=C(COc1ccccc1)Nc1nc2ccccc2s1`: the CC50 in experiment [1] is 66.7 µM.
For the compound `Cc1ccccc1OCC(=O)Nc1ccccc1-c1ccccc1`, the 50% cytotoxic concentration (CC50) in experiment [1] was 77 µM.
In the case of `O=C(CCS(=O)(=O)c1ccc(F)cc1)Nc1nnc(-c2cccs2)o1`, the cytotoxic concentration (CC50) in experiment [1] is 41.6 µM.
Take `Cc1ccccc1OCC(=O)Nc1ccccc1N1CCCCC1`: the CC50 in experiment [1] was 51 µM.
Consider `Cc1cc(C)c(OCC(=O)Nc2nc3ccccc3s2)c(Cl)c1`, for which the viability in experiment [2] is 83.2% (inactive).
In the case of `Cc1ccc2oc(/N=C(\N)NC(=O)c3ccccc3)nc2c1`, the CC50 in experiment [1] was 5.79 µM.
Consider `Cc1ccccc1OCC(=O)Nc1ncn[nH]1`, for which the viability in experiment [2] was 80.5% (inactive).
As for `N/C(=N\c1nc2ccccc2o1)NC(=O)c1ccc(F)cc1`, in experiment [1], the CC50 was 12.5 µM.
In the case of `Cc1ccc(OC(C)C(=O)Nc2ncccn2)c(C)c1` (centres undefined), the viability in experiment [2] is 86.1% (inactive).
Turning to `COc1ccc2nc(NC(=O)COc3ccc(C)cc3)sc2c1`, the CC50 in experiment [1] is 29.8 µM.
For the compound `CC(=O)c1c(C)n(-c2ccccc2C)c2ccc(O)cc12`, the viability in experiment [2] is 82.3% (inactive).
For `CC(Oc1ccc(Cl)cc1)C(=O)Nc1nc2ccccc2s1` (centres undefined), in experiment [1], the CC50 was 46.4 µM.
With `Cc1ccccc1OCC(=O)Nc1nnn(C)n1`, the viability in experiment [2] is 87.8% (inactive).
On to `Cc1ccc(OCC(=O)Nc2nnn(C)n2)c(C)c1`, for which, in experiment [2], the viability was 85.2% (inactive).
Consider `Cc1onc(-c2c(Cl)cccc2Cl)c1/C(N)=N/OC(=O)C1CC1`, for which the viability in experiment [2] was 102% (inactive).
For `O=C(O)CCC(=O)Nc1nc2ccccc2s1`, the viability in experiment [2] is 98.8% (inactive).
Turning to `CCOc1ccc2c(c1)c(C(C)=O)c(C)n2-c1ccccc1`, in experiment [1], the CC50 is 94.5 µM.
For the compound `Oc1ccc2[nH]ccc2c1`, the viability in experiment [2] is 101% (inactive).
As to `COc1ccc2nc(NC(=O)c3oc4ccccc4c3C)sc2c1`, the viability in experiment [2] is 80.8% (inactive).
As to `COC(=O)c1ccc2nc(NC(=O)COc3ccccc3)sc2c1`, the viability in experiment [2] is 88.8% (inactive).
Turning to `O=C(CSc1n[nH]c(=O)n1C1CC1)c1ccc2c(c1)OCCO2`, in experiment [2], the viability was 94.5% (inactive).
In the case of `O=C(Cc1csc(-c2ccccc2F)n1)Nc1nc2ccccc2[nH]1`, the viability in experiment [2] was 88.2% (inactive).
Consider `CC(C)(Oc1ccc(Cl)cc1)C(=O)Nc1nc2ccccc2s1`, for which the CC50 in experiment [1] is 72.3 µM.
In the case of `COc1ccc2nc(NC(=O)COc3ccc(Cl)cc3)sc2c1`, in experiment [2], the viability is 92.1% (inactive).
As for `CC(=O)c1c(C)n(-c2ccccc2)c2ccc(O)cc12`, in experiment [2], the viability was 80.4% (inactive).
Same read-out and setting: next, `CCOc1ccc2nc(NC(=O)COc3ccccc3)sc2c1`: 76.4% (inactive).
Consider `CCOc1ccc2nc(NC(=O)C(C)Oc3ccccc3F)sc2c1` (centres undefined), for which the CC50 in experiment [1] is 67.7 µM.
As for `N/C(=N\c1nc2ccccc2o1)NC(=O)c1ccccc1Br`, the viability in experiment [2] is 84.6% (inactive).
For the compound `COc1ccc(C(=O)Nc2ccc3nc(N4CCCCC4)cc(C)c3c2)c(OC)c1`, in experiment [2], the viability was 92% (inactive).
For `O=C(OC(C(=O)Nc1ccc(Cl)cc1C(F)(F)F)c1ccccc1)C1=COCCO1` (centres undefined), in experiment [2], the viability is 72.7% (inactive).
Consider `CCOc1ccc2nc(NC(=O)COc3ccc(F)cc3)sc2c1`, for which, in experiment [2], the viability was 96.4% (inactive).
With `COc1ccc2nc(NC(=O)C(C)Oc3ccccc3)sc2c1` (centres undefined), the cytotoxic concentration (CC50) in experiment [1] was 87.7 µM.
For the compound `CCOc1ccc2nc(NC(=O)COc3ccc(OC)cc3)sc2c1`, the viability in experiment [2] was 102% (inactive).
As for `COc1cccc(-c2ccc(-c3noc(-c4ccccc4F)n3)c(OC)n2)c1`, the cytotoxic concentration (CC50) in experiment [1] was 46.7 µM.
As to `O=C(CC12CC3CC(CC(C3)C1)C2)NCc1ccc(F)cc1`, in experiment [2], the viability is 86.5% (inactive).
The same measure, in the same setting: next, `Cc1cc2cc(F)ccc2[nH]1`: 95% (inactive).
For `O=C(Nc1nc2ccccc2[nH]1)c1ccc(Cl)c(Cl)c1`, the CC50 in experiment [1] is 83.6 µM.
Turning to `Cc1cc(C)c(OCC(=O)Nc2nc3ccc(C)cc3s2)c(C)c1`, in experiment [2], the viability is 87.7% (inactive).
Still for that read-out and setting: next, `Cc1cc2cc(Cl)ccc2[nH]1`: 84.1% (inactive).
Consider `CCOc1ccc2nc(NC(=O)COc3ccc(Cl)c(C)c3)sc2c1`, for which the CC50 in experiment [1] was 38.6 µM.
For `Cc1ccc(OCC(=O)Nc2ccc3c4c(cccc24)CC3)c(C)c1`, in experiment [1], the CC50 was 27.2 µM.
Turning to `Cc1c(OCc2ccc(C(=O)O)cc2)ccc2c(-c3ccccc3)cc(=O)oc12`, the CC50 in experiment [1] was 51.8 µM.
For `COc1cccc(NC(=S)Nc2cc(C)cc(C)n2)c1`, the viability in experiment [2] is 89.5% (inactive).
For `CC(=O)c1c(C)n(-c2ccccc2)c2ccc(OC(C)C)cc12`, the viability in experiment [2] was 79.6% (inactive).
`COc1ccccc1C(=O)N/C(N)=N/c1nc2ccccc2o1`: in experiment [1], the CC50 was 16.6 µM.
Consider `CC(C)Cn1c2c(c(O)c(C(=O)Nc3nccs3)c1=O)CCCC2`, for which the CC50 in experiment [1] was 78 µM.
With `CC(=O)Nc1ccc2nc(NC(=O)Cc3ccccc3)sc2c1`, the viability in experiment [2] is 82.2% (inactive).
Turning to `O=C(Nc1ccccc1)Nc1csc2ccccc12`, the cytotoxic concentration (CC50) in experiment [1] was 31.9 µM.
On to `CCCOc1ccc2c(c1)c(C(C)=O)c(C)n2-c1ccccc1`, for which, in experiment [2], the viability is 97.1% (inactive).
For the compound `CCOc1ccc2c(c1)c(C(C)=O)c(C)n2-c1ccccc1Cl`, the CC50 in experiment [1] was 47.7 µM.
On to `CCOc1ccc2c(c1)c(C(C)=O)c(C)n2Cc1ccco1`, for which the viability in experiment [2] is 94.5% (inactive).
Still for that read-out and setting: the figure for `COc1ccc2nc(NC(=O)COc3ccccc3)sc2c1` is 83.9% (inactive); for `COc1ccc2nc(NC(=O)COc3ccccc3C(C)C)sc2c1` it is 93.8% (inactive).
As to `COC(=O)c1sc(-c2ccc(C(C)(C)C)cc2)cc1NC(=O)CCC(=O)O`, the CC50 in experiment [1] is 64.7 µM.
As for `CCC(CC)c1nnc(NC(=O)c2ccc(N3CCCCC3)c([N+](=O)[O-])c2)s1`, the CC50 in experiment [1] is 41.3 µM.
Take `CCOc1ccc2nc(NC(=O)Cc3ccc(OC)cc3)sc2c1`: in experiment [2], the viability is 83.6% (inactive).
Still for that read-out and setting: the figure for `S=C(Nc1ccccc1)Nc1ccc(Cl)cn1` is 97.2% (inactive); for `Cc1ccc(OCC(=O)Nc2cccc3c(NC(=O)COc4ccc(C)cc4C)cccc23)c(C)c1` it is 96.3% (inactive).
In the case of `O=C(COC(=O)C1CC1)c1c[nH]c2ccccc12`, the viability in experiment [2] is 95.5% (inactive).
As to `c1ccc(Nc2ncnc3c2oc2ccccc23)cc1`, the CC50 in experiment [1] is 76.9 µM.
The same measure, in the same setting: the figure for `CCOc1ccc2nc(NC(=O)C3(c4ccccc4)CCCC3)sc2c1` is 62.3 µM.
Regarding `Cc1ccccc1OCC(=O)Nc1ncccn1`, the viability in experiment [2] was 100% (inactive).
In the case of `O=C(COc1ccc(Cl)cc1)Nc1nc2ccc(F)cc2s1`, the CC50 in experiment [1] is 57.2 µM.
Same read-out and setting: the figure for `O=C(COc1cccc2ccccc12)Nc1nc2ccccc2s1` is 77.7 µM.
Consider `COc1ccc2nc(NC(=O)COc3c(C)cc(C)cc3C)sc2c1`, for which, in experiment [2], the viability was 79.6% (inactive).
As for `COc1cccc(NC(=O)C2CC2)c1`, in experiment [2], the viability was 102% (inactive).
Consider `CCOC(=O)c1cnc2cc(-c3ccc(C(C)(C)C)cc3)nn2c1N`, for which the half-maximal cytotoxic concentration (CC50) in experiment [1] is 74.6 µM.
Same read-out and setting: next, `N/C(=N\c1nc2ccccc2o1)NC(=O)COc1ccc2ccccc2c1`: 37.3 µM.
Take `Cc1cc2cc(O)ccc2[nH]1`: the viability in experiment [2] is 105% (inactive).
Turning to `CCc1ccc2nc(/N=C(\N)NC(=O)c3ccccc3)nc(C)c2c1`, in experiment [2], the viability is 81.6% (inactive).
Take `Cc1cc(C)c(OCC(=O)Nc2nc3ccccc3[nH]2)c(C)c1`: the viability in experiment [2] is 85.7% (inactive).
Take `Cc1ccccc1C(=O)Nc1nc2ccccc2[nH]1`: in experiment [1], the CC50 is 71.4 µM.
Consider `COc1ccc(Cl)cc1C(=O)Nc1nc2ccccc2[nH]1`, for which, in experiment [1], the CC50 was 25.4 µM.
`OCCCc1cn(-c2ccccc2)c2ccccc12`: in experiment [1], the CC50 was 90 µM.
Turning to `O=C(COc1ccccc1Cl)Nc1nc2ccccc2s1`, the viability in experiment [2] was 73.1% (inactive).
